We go through 2 compounds from patent publication US10765670B2, “Use of anti-connexin agents for enhancing the therapeutic effect of acetylcholinesterase inhibitors” (COMMISSARIAT A L'ENERGIE ATOMIQUE ET AUX ENERGIES …, priority 2011, dated 2020).

Marks after values point to notes of the source that are not given here.

For one assay, the system named is male C57bl/6 mice. The experiment in a line: Electro-encephalographic recording of hippocampal theta activity in mice. In kind it is in vivo. The following applies: for EEG Relative power to vehicles (relative power of hippocampal theta rhythm): n=7. The procedure: Electrophysiological effects of donepezil were evaluated by analysis of hippocampal electroencephalographic activity (EEG) as described previously in WO2010/029131. Briefly, the assay is as follows:
Two groups of male C57bl/6 mice (seven mice from 4 to 5 month old and seven mice from 17 to 18 month old) were pre-implanted with bilateral hippocampal bipolar electrodes under isoflurane anaesthesia. A two-week period of recovery was realized before recordings.
Different intraperitoneal treatments were performed by circular combination of 7 mice per treatment (donepezil 0.1 and 0.3 mg/kg, meclofenamic 1 mg/kg, donepezil 0.1 mg/kg+MFA 1 mg/kg).
EEG measures were performed on different batches of awoke mice (previously implanted and tamed) by recordings two hours after injection. The spectral analysis is carried out by Fourier transform (FFT) and allows the calculation of the relative powers for each Hertz and each second. FFT data are then averaged minute by minute and reported to control solvent recording realized on the day before in strictly identical experimental conditions. The spectral powers of two hippocampal electrodes are then averaged between 3 and 12 Hertz and represented hourly.
At day 1, saline was administered intraperitoneally to “adult” or “elderly” mice (n=7), and θ-hippocampal activity was measured for two consecutive hours. On day 2, donepezil alone or in combination with MFA is injected, and θ-hippocampal activity is related to that measured on day 1.

Assay [1] deals with C57bl/6 male mice, 17-18-month old. The experiment in a line: Behavioral test of working memory, T-maze spontaneous alternation (SA-task) in elderly mice. The format is in vivo. The following applies: for promnesiant effect (increase of total alternation, FIG. 2) / total alternation in T-maze (FIG. 2): elderly mice; for SA-task relative to vehicles (mean percentage of alternation relative to vehicles over the seven trials): 30 min before T-maze, 17-18-month old mice. The source says: The alternating sequential test is widely used to assess spatial working memory in mice (Beracochea D. J. and Jaffard R., Behav. Neurosci. 101 (1987) 187-97). Spontaneous alternation is the innate tendency of rodents to alternate their choices to enter into the compartments of arrival of a T-maze device, over successive trials. To alternate during a given trial N, the animal must remember the choice made selectively in test N−1, so the decline in alternating will reflect the phenomenon of oblivion. The response in alternating is performance measure. Sequential alternating assess more specifically the sensitivity to interference, a major factor in oblivion.
The experiment took place in a T-maze (50 cm×10 cm×25 cm). All the subjects (C57bl/6 male mice, 17-18-month old, n=9) were given 7 successive trials separated by a 90-s intertrial interval. To begin a trial, the mouse was placed in the start box for 90 s before the door to the stem was opened. When the subject entered one of the goal arms, the door to that arm was closed. The chosen arm and the time that elapsed between opening the door and the arrival to the end of the chosen arm (task achievement time) were registered. Following a 30-s confinement period in the chosen arm, the animal was removed and placed in the start box for a new trial. Between each test, the unit was cleaned with water and alcohol to avoid olfactory detection. An alternation response was considered each time the subject entered the arm opposite to the one visited on the immediately previous trial. Alternation rate was calculated taking into account the 6 successive trials, and expressed in percentage relative to the maximal alternation rate of 100% (obtained when the subject never returned into the same arm for two consecutive trials).
C57BL/6 mice of 17 to 18 months (“elderly” mice) were intraperitoneally injected with a solution of NaCl (vehicle), donepezil (DZP), meclofenamic acid (MFA) or a combination of these two latter compounds, 30 minutes before T-maze experiment.
Thirty minutes after treatment (NaCl, donepezil, MFA), “elderly” mice are placed in the T-maze device. The percentage of alternation was measured for 7 consecutive trials, 50% corresponding to a random alternation.

The conditions of assay [2]: Wagner C. et al 2007; cited from earlier work.
The subject of another assay is rodents. The following applies: MFA 1 mg/kg, previously described; cited from earlier work.

On to `Cc1ccc(Cl)c(Nc2ccccc2C(=O)O)c1Cl` [MFA, Benzoic 2-[(2,6-di-chloro-3-phenyl)amino] acid], for which, in the assay on male C57bl/6 mice (MFA alone 1 mg/kg i.p.), the “effect on EEG (θ-hippocampal activity)” value is recorded as “no effect by its own”. Further, the “promnesiant effect (increase of total alternation, FIG. 2)” value in assay [1] (MFA alone 1 mg/kg i.p.) was “no promnesiant effect significant”. Moreover, in assay [1] (MFA alone 1 mg/kg i.p., three blocks of trials), the “alternation by blocks of two trials (FIG. 3)” value was “no significant effect”. In assay [2], the “dose at which the anti-inflammatory effect is observed in vivo” value is “approximately 5 mg/kg/day”. In the assay with rodents, the “effect on the electroencephalographic signal” value was “not affecting the electroencephalographic signal”.
As to `COc1cc2c(cc1OC)C(=O)C(CC1CCN(Cc3ccccc3)CC1)C2` (stereo not drawn) [donepezil, 2,3-dihydro-5,6-dimethoxy-2-[[1-(phenylmethyl)-4-piperidinyl]methyl]-1H-i-nden-1-one], the “response of θ-hippocampal activity (FIG. 1)” value with male C57bl/6 mice (4-5-month old mice, donepezil 0.1 mg/kg i.p.) is given as “do not respond significantly”; in the assay with male C57bl/6 mice (4-5-month old mice, donepezil 0.3 mg/kg i.p.), “do not respond significantly”; in the assay on male C57bl/6 mice (17-18-month old mice, donepezil 0.3 mg/kg i.p., second hour of recording) it was “an effect”. Besides, the “EEG Relative power to vehicles (relative power of hippocampal theta rhythm)” value in the assay on male C57bl/6 mice (donepezil 0.1 mg/kg intraperitoneal) and in the assay with male C57bl/6 mice (donepezil 0.3 mg/kg intraperitoneal) was 1 each time. Moreover, the “SA-task relative to vehicles (mean percentage of alternation relative to vehicles over the seven trials)” value was 35% in assay [1] (donepezil 0.1 mg/kg i.p.) and 48%** in assay [1] (donepezil 0.3 mg/kg i.p., p<0.01). Further, the “promnesiant effect (increase of total alternation, FIG. 2)” value in assay [1] (donepezil 0.1 mg/kg i.p.) was “no significant promnesiant effect”; in assay [1] (donepezil 0.3 mg/kg i.p.) it was “significant promnesiant effect”; in assay [1] (donepezil 1 mg/kg i.p.) it was “significant promnesiant effect”. The “alternation by blocks of two trials (FIG. 3), memory interference” value in assay [1] (donepezil 0.1 mg/kg i.p., third block (trials 6 and 7)) is listed as “partially counteract the interference phenomenon”. The “total alternation in T-maze (FIG. 2)” value in assay [1] (donepezil alone 0.3 mg/kg i.p.) and in assay [1] (donepezil alone 1 mg/kg i.p.) was “around 75%” throughout.
